# From patent US10758633B2, “Nanoparticles for magnetic resonance imaging applications” (Massachusetts Institute of Technology, priority 2014, dated 2020)
# Assay: MRI contrast enhancement in blood over time, 1.5 T clinical MRI, mice brain slice
# Format: in vivo
# Details: intravenous injection, T1-weighted
# Description: The MRI contrast enhancement of Magnevist® (the most commonly used gadolinium-based contrast agents, GBCAs) and ES-SPIONs in blood were compared over time. According to approved animal protocols, mice were scanned in a 1.5 T clinical MRI machine. After intravenous injection of Magnevist or ES-SPIONs, the T1-weighted images of a single slice in mice brain were taken using clinical MRI sequences (˜3.5 mins time length), and then the half-life of contrast enhancements of both agents were compared side-by-side. […] Left and right images show corresponding side views of the image in the middle. It can be seen in FIG. 6 that a three dimensional profile highlighting the blood vessels in brain was generated.
smiles,measurement,value
CNC[C@H](O)[C@@H](O)[C@H](O)[C@H](O)CO.CNC[C@H](O)[C@@H](O)[C@H](O)[C@H](O)CO.O=C([O-])CN(CCN(CC(=O)[O-])CC(=O)O)CCN(CC(=O)[O-])CC(=O)O.[Gd+3] [Magnevist],half-life of contrast enhancement,~2 min
